According to patent US8357350B2, “Annulus fibrosus detection in intervertebral discs using molecular imaging agents” (General Electric Company, priority 2009, dated 2013):

Tests used:
trigeminal ganglia = assay: FM fluorophore uptake, intraoperative fluorescence imaging; format: in vivo, mice and rats; conditions: 5 mg/kg mice, 0.5 mg/kg rats IP, 16 hours before imaging; signal normalized to muscle, vs vehicle control; further: key: +: Positive contrast was concluded if the nerve-to-muscle contrast ratio of FM fluorophore-injected animals was elevated relative to control animals
Experimental: (§1) Imaging was carried out at near infrared wavelenghts using a 400- to 700-nm “white” light (0.5 mW/cm^2) and a 725- to 775-nm NIR fluorescence excitation light (5 mW/cm^2). Fluorescence images were collected using exposure times ranging from 500 to 2000 msec. All images collected for comparison between vehicle-injected control animals and FM fluorophore-injected animals had the same exposure time and normalization. Color video images were collected on a separate optical channel using custom designed software. The excitation and emission LEDs and filter used for the FM fluorophores and Pam800 in the intraoperative imaging system are described as follows. For fluorescence excitation of FM 1-43, FM 2-10, FM 1-43FX and Formula IA, sixty 5-mm 470 nm LEDs ([…], Inc., Kyoto, Japan) fitted with 470±20 nm band pass (BP) excitation filters (Chroma Technology, Rockingham, Vt.) in custom holders were used, which produced a fluence rate on the imaging surface of 0.56 mW/cm^2. For fluorescence excitation of Formula II, FM 4-64, FM 4-64FX and FM 5-95, sixty 5-mm 535 nm LEDs fitted with 525±25 nm BP excitation filters were used, which produced a fluence rate on the imaging surface of 0.34 mW/cm^2. A 610±38 nm BP filter was used to detect fluorescence emission of FM 1-43, FM 2-10, Formula II, FM 1-43FX and Formula IA. To detect fluorescence emission of FM 4-64, FM 4-64FX and FM 5-95 a 720 nm long pass (LP) filter was used. For fluorescence excitation of Pam800, 348 5-mm 760 nm LEDs fitted with 764±17 nm BP excitation filters were used, which produced a fluence rate on the imaging surface of 8.73 mW/cm^2 and fluorescence emission was detected using a 824±24 nm BP emission filter. To assess the structure-activity relationship of the FM fluorophores, each molecule was administered at 5 mg/kg to mice and 0.5 mg/kg to rats (n=4 per group) in 10% DMSO and 90% PBS IP 16 hours before imaging with the intraoperative system. The fluorescence signal from the spinal cord, intervertebral discs, dorsal root ganglia, trigeminal ganglia, optic nerve, brain and femoral nerve were normalized to muscle signal in the same image. This normalization ratio was then compared between FM fluorophore-injected animals and vehicle-injected control animals.

intervertebral discs = assay: as above; format: in vivo, mice and rats; on Uptake: Intervertebral Disc: key: +: Positive contrast was concluded if the nerve-to-muscle contrast ratio of FM fluorophore-injected animals was elevated relative to control animals
Experimental: as §1

dorsal root ganglia = assay: as above; format: in vivo, mice and rats; conditions: 5 mg/kg mice, 0.5 mg/kg rats IP, 16 hours before imaging; signal normalized to muscle, vs vehicle control; further: key: +: Positive contrast was concluded if the nerve-to-muscle contrast ratio of FM fluorophore-injected animals was elevated relative to control animals
Experimental: as §1

[1] = Fluorescence quantum yield versus Alexa Fluor 555 reference; format: physicochemical; conditions: highest in FBS among DMSO, MeOH, PBS
Experimental: (§2) Absorbance and fluorescence spectra of the FM fluorophores were measured in PBS and absolute methanol (MeOH) using fiber-optic HR2000 (200-1100 nm) and USB2000FL (350-1000 nm) spectrometers (Ocean Optics, Dunedin, Fla.), respectively. Fluorescence excitation was provided by a 2 mW, 532 nm laser diode. The fluorescence and absorbance spectra of FORMULA II and FORMULA IA were collected in dimethyl sulfoxide (DMSO) and fetal bovine serum (FBS), as well as MeOH and PBS. The quantum yield of FORMULA II and FORMULA IA in DMSO, MeOH, FBS and PBS was measured by comparing the integrated fluorescence emission of the fluorophores in each solvent to the emission of Alexa Fluor 555 (Invitrogen) in PBS (quantum yield=10%) as a reference standard under conditions of matched absorbance at the excitation wavelength. The LogD of each FM fluorophore at pH 7.5 was calculated using Marvin 5.0.3 software (ChemAxon, Budapest, Hungary).

[2] = Absorbance and fluorescence spectra of FM fluorophores in solvents; format: physicochemical
Experimental: as §2

Q: For `CCCCN(CCCC)c1ccc(/C=C/c2cc[n+](CCC[N+](C)(C)C)cc2)cc1.[Br-].[Br-]` [Formula IA, (E)-4-(4-(dibutylamino)styryl)-1-(3-(trimethylammonio)propyl)pyridinium dibromide], which “Uptake: Trigeminal Ganglia” value (trigeminal ganglia) is on record?
A: The value was “+”.

Q: What about the “Uptake: Intervertebral Disc” value (intervertebral discs; 5 mg/kg mice, 0.5 mg/kg rats IP, 16 hours before imaging, signal normalized to muscle, vs vehicle control) of the same compound?
A: Its value is “+”.

Q: What about the “contrast in the intervertebral discs” value (intervertebral discs; IP administration to mice and rats) of the same compound?
A: Its value is “positive contrast”.

Q: What about the “Uptake: Dorsal Root Ganglia” value (dorsal root ganglia) of the same compound?
A: The value was “+”.

Q: And the “fluorescence quantum yield, times higher in FBS” value [1]?
A: The value was 5 times.

Q: What about the “Em nm (MeOH)” value ([2]; emission maximum in MeOH) of the same compound?
A: Its value is 624 nm.

Q: What about the “Em nm (PBS)” value ([2]; emission maximum in PBS) of the same compound?
A: The value was 628 nm.

Q: What about the “Ex nm (MeOH)” value ([2]; excitation maximum in MeOH) of the same compound?
A: Its value is 510 nm.

Q: What about the “Ex nm (PBS)” value ([2]; excitation maximum in PBS) of the same compound?
A: Its value is 497 nm.
